Data published in patent publication US5744479A, “Thienopyridine compounds which have useful pharmaceutical activity” (Takeda Chemical Industries, Ltd., priority 1995, dated 1998).
Where a name gives a salt, the structure may show the parent alone.

Target: T1, human GnRH receptor (Homo sapiens, UniProt P30968)
T1 construct: expressed in transfected cells; host or cells: CHO (Chinese Hamster Ovary) cells, membrane fraction
T1 sequence (P30968 1-328): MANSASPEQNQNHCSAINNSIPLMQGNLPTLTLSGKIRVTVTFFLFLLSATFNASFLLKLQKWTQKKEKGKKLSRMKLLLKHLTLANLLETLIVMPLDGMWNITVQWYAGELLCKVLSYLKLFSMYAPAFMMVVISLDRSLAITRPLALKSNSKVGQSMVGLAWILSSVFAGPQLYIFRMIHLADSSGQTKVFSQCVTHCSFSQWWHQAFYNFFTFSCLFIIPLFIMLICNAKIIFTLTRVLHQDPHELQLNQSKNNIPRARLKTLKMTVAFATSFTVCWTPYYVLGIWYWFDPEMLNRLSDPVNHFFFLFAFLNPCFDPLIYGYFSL
Assay: Inhibition of ^125 I-leuprorelin binding to membrane fraction of CHO cells expressing human GnRH receptors
Details: CHO cell membrane fraction, 25° C., 60 minutes, concentration of PMB=50% by Hill plot, read-out: IC50 value human GnRH receptor (^125 I-leuprorelin binding inhibitory rate)

| SMILES | IC50 [nM] |
| --- | --- |
| CC(C)Oc1cn(Cc2c(F)cccc2F)c2sc(-c3ccc(NC(=O)C(C)C)cc3)c(CN(C)Cc3ccccc3)c2c1=O [Example 8(4), 4,7-dihydro-2-(4-isobutyrylaminophenyl)-3-(N-benzyl-N-methylaminomethyl)-5-isopropoxy-7-(2,6-difluorobenzyl)-4-oxothieno[2,3-b]pyridine] | 1 |
| CC(C)C(=O)Nc1ccc(-c2sc3c(c2CN(C)Cc2ccccc2)c(=O)c(OS(=O)(=O)C(C)C)cn3Cc2c(F)cccc2F)cc1 [Example 10, 4,7-dihydro-2-(4-isobutyrylaminophenyl)-3-(N-benzyl-N-methylaminomethyl)-5-isopropylsulfonyloxy-7-(2,6-difluorobenzyl)-4-oxothieno[2,3-b]pyridine hydrochloride] | 0.3 |
| CC(C)C(=O)Nc1ccc(-c2sc3c(c2CN(C)Cc2ccccc2)c(=O)c(OC(=O)C(C)C)cn3Cc2c(F)cccc2F)cc1 [Example 11, 4,7-dihydro-2-(4-isobutyrylaminophenyl)-3-(N-benzyl-N-methylaminomethyl)-5-isobutyryloxy-7-(2,6-difluorobenzyl)-4-oxothieno[2,3-b]pyridine hydrochloride] | 2 |
| CCOC(=O)COc1cn(Cc2c(F)cccc2F)c2sc(-c3ccc(NC(=O)C(C)C)cc3)c(CN(C)Cc3ccccc3)c2c1=O [Example 12, 4,7-dihydro-2-(4-isobutyrylaminophenyl)-3-(N-benzyl-N-methylaminomethyl)-5-ethoxycarbonylmethoxy-7-(2,6-difluorobenzyl)-4-oxothieno[2,3-b]pyridine] | 3 |
